Tests used:
Experiment in all cases: relative viability (nuclei count vs DMSO), 5 days (fraction); higher = more cells survive
[1] = compound: Cc1ccc(C(=O)Nc2cccc(C(F)(F)F)c2)cc1Nc1cncc(C(N)=O)c1 [ALW-II-49-7] + CC(C)C[C@H](NC(=O)[C@H](Cc1ccccc1)NC(=O)c1cnccn1)B(O)O [Bortezomib] (partner 0.002 µM)
Method in brief: (§1)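 Values are medians from duplicate plates. Each reflects relative viability, defined as the nuclei count of treated wells over that of vehicle wells. Lung cancer cell lines in 1536-well plates were pin-tool dosed one day after seeding with one drug alone or with a fixed anchor-drug dose plus five library-drug doses (not always all listed) in √10 steps, then fixed, stained and imaged at 4× after 5 days.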

[2] = compound: Cc1nc(Nc2ncc(C(=O)Nc3c(C)cccc3Cl)s2)cc(N2CCN(CCO)CC2)n1 [Dasatinib] + O=C(CCCCCCC(=O)Nc1ccccc1)NO [Vorinostat] (partner 1 µM)
Method in brief: as §1

[3] = compound: C1CC1C(=O)NC2=NNC3=C2C=CC(=C3)C4=CC(=CC=C4)C(=O)NC5CC5 [XMD13-2] + CCNC(=O)c1noc(-c2cc(C(C)C)c(O)cc2O)c1-c1ccc(CN2CCOCC2)cc1 [Luminespib] (partner 0.01 µM)
Method in brief: as §1

[4] = compound: Cc1ccc(C(=O)Nc2cccc(C(F)(F)F)c2)cc1Nc1cncc(C(N)=O)c1 [ALW-II-49-7] + CCNC(=O)c1noc(-c2cc(C(C)C)c(O)cc2O)c1-c1ccc(CN2CCOCC2)cc1 [Luminespib] (partner 0.01 µM)
Method in brief: as §1

Row | Cell Line | relative viability ([1]; first compound 0.08 µM) | relative viability ([1]; first compound 0.253 µM) | relative viability ([1]; first compound 0.8 µM) | relative viability ([1]; first compound 2.53 µM) | relative viability ([1]; first compound 8 µM) | relative viability ([2]; first compound 0.005 µM) | relative viability ([2]; first compound 0.01581 µM) | relative viability ([2]; first compound 0.05 µM) | relative viability ([2]; first compound 0.1581 µM) | relative viability ([2]; first compound 0.5 µM) | relative viability ([3]; first compound 0.05 µM) | relative viability ([3]; first compound 0.1581 µM) | relative viability ([3]; first compound 0.5 µM) | relative viability ([3]; first compound 1.581 µM) | relative viability ([3]; first compound 5 µM) | relative viability ([4]; first compound 0.08 µM) | relative viability ([4]; first compound 0.253 µM) | relative viability ([4]; first compound 0.8 µM) | relative viability ([4]; first compound 2.53 µM) | relative viability ([4]; first compound 8 µM)
1 | NCI-H1299 | 1.03 | 1.02 | 1.02 | 0.98 | 0.853 |  |  |  |  |  |  |  |  |  |  |  |  |  |  | 
2 | NCI-H1395 |  |  |  |  |  | 0.722 | 0.762 | 0.515 | 0.291 | 0.387 | 0.669 | 0.668 | 0.809 | 0.66 | 0.83 | 0.754 | 0.796 | 0.823 | 0.716 | 0.706
3 | NCI-H1563 | 0.922 | 0.885 | 0.877 | 0.842 | 0.753 |  |  |  |  |  | 0.521 | 0.526 | 0.527 | 0.536 | 0.506 | 0.531 | 0.487 | 0.503 | 0.495 | 0.457
4 | NCI-H1623 |  |  |  |  |  |  |  |  |  |  | 0.594 | 0.514 | 0.517 | 0.456 | 0.502 | 0.518 | 0.428 | 0.431 | 0.561 | 0.698
5 | NCI-H1648 |  |  |  |  |  | 0.374 | 0.481 | 0.606 | 0.266 | 0.179 |  |  |  |  |  |  |  |  |  | 
6 | NCI-H1703 | 0.287 | 0.348 | 0.298 | 0.278 | 0.167 |  |  |  |  |  |  |  |  |  |  |  |  |  |  | 
7 | NCI-H1792 | 0.745 | 0.878 | 0.82 | 0.922 | 0.95 |  |  |  |  |  | 0.25 | 0.462 | 0.447 | 0.571 | 0.377 |  | 0.383 | 0.276 | 0.293 | 0.349
8 | NCI-H1793 |  |  |  |  |  | 0.56 | 0.571 | 0.46 | 0.357 | 0.344 | 0.277 |  | 0.168 | 0.172 | 0.175 | 0.146 | 0.197 | 0.195 | 0.177 | 0.175
9 | NCI-H1944 |  |  |  |  |  | 0.573 | 0.527 | 0.452 | 0.196 | 0.169 | 0.797 | 0.756 | 0.758 | 0.899 | 0.697 | 0.884 | 0.805 | 0.796 | 0.815 | 0.738
10 | NCI-H2170 |  |  |  |  |  | 0.797 | 0.72 | 0.743 | 0.467 | 0.334 | 0.506 | 0.515 | 0.776 | 0.55 | 0.908 | 0.73 | 0.372 | 0.418 | 0.826 | 0.784
11 | NCI-H2342 |  |  |  |  |  | 0.734 | 0.654 | 0.603 | 0.458 | 0.339 | 0.721 | 0.712 | 0.642 | 0.767 | 0.806 | 0.641 | 0.705 | 0.676 | 0.751 | 0.775
12 | SK-MES-1 |  |  |  |  |  | 1.19 | 0.961 | 0.977 | 0.503 | 0.206 | 1.06 | 0.67 | 0.773 | 0.711 | 0.556 | 0.591 | 0.797 | 0.8 | 0.864 | 0.719
13 | SW 900 |  |  |  |  |  | 0.356 | 0.282 | 0.289 | 0.163 | 0.192 | 0.192 | 0.174 | 0.2 | 0.178 | 0.19 | 0.16 | 0.141 | 0.191 | 0.171 | 0.155
